Reference: patent US5432058A, “Method for measuring human cholesterol absorption using metabolically stable isotopes” (priority 1992, dated 1995)
Where “and” joins values, the source holds several entries; their conditions need not be identical. Identical values can stand only once. Like-named read-outs stand apart in the source and are kept apart here.

How the values were obtained:
[1] = set-up: species or system rabbits; conditions: rabbit, in vivo
Experimental: [26,26,26,27,27,27]-^2 H-cholesterol shown if FIG. 2 was prepared by Dr. Eric Stohler of Biodesign, Inc. The deuterium in the labeled cholesterol is located on stable terminal methyl groups of the side chain. When both: ^13 C-cholesterol and ^2 H-cholesterols were given intravenously or orally to rabbits there was no change in the plasma ratio of the two cholesterols over one week.

[2] = Preparation of Intralipid infusate: filter passage and residual tracer in syringe and lines; format: physicochemical
Experimental: (§1) [23,24,25,26,27]-^13 C-cholesterol suitable for intra venous administration was prepared in a laminar flow hood. The labeled cholesterol was dissolved at 5 mg/ml in USP ethanol in a sterile container, water was added to 10% by volume in order to increase virucidal activity, and the solution was allowed to stand at room temperature for at least 6 hrs. The solvents were then sterilely removed and the cholesterol residue dissolved at 20 mg/ml in ethanol and passed through a 0.22 micron solvent-resistant filter. Aliquots were tested for sterility and dried aliquots for pyrogenicity using the Limulus assay, and the stock was kept frozen at -70° C. On the day of the experiment both the ^13 C-cholesterol and a small amount of 10% Intralipid were warmed to 37° C. and the ethanolic cholesterol was added dropwise to 4 volumes of Intralipid. After 5 minutes at 37° C. and 15 min. at room temperature the mixture was put through a 0.8 micron particulate filter. More than 94% of the labeled cholesterol passed through the filter. An aliquot containing approximately 15 mg. ^13 C-cholesterol was drawn into atared syringe and weighed. The syringe contents were injected over 5 minutes into a running saline infusion and the syringe was washed several times with saline.

[3] = Dual stable isotope cholesterol absorption study in healthy subjects (oral and intravenous tracers, plasma tracer ratio by GC/MS on day 3); format: in vivo, human; conditions: for Fa at 72 h: human, in vivo, po, 30 mg
Experimental: There is a paucity of information concerning cholesterol absorption in humans, and one prominent reason for this deficiency is the need to administer long-lived radioactive cholesterol tracers. To eliminate this hazard, we have developed a procedure, based on that of Zilversmit (Prof. Soc. Exp. Med. Biol. 140:862-865, 1972), employing stable isotopic tracers of cholesterol. One metabolically stable cholesterol tracer is administered orally and a second metabolically stable cholesterol tracer is administered intravenously on day 0. The ratio of the two tracers is determined after equilibration on about day 3 by gas chromatography-mass spectrometry (GC/MS) with selected ion monitoring. Ion current peaks corresponding to the first and second tracers are corrected for spillover From each other and from endogenous cholesterol. Percent cholesterol absorption is calculated as the ratio of the cholesterol tracers. The use of stable cholesterol isotopes for the study of cholesterol absorption is feasible, precise, safe and allows broad application of cholesterol absorption measurements in humans including women and children, thereby Facilitating clinical genetic studies in groups about which little current data is available.
There is a waiting period after the cholesterol tracers of this invention have been administered to a human subject. The waiting period allows the ingested cholesterol tracer to reach equilibrium in the subject's blood. The waiting period can range from 12 hours to about 5 days or more. However, it is preferred that the waiting period is from about 24 hours to about 96 hours. Following the waiting period, a blood sample is withdrawn from the subject and analyzed by GC/MS techniques to determine the relative amount of the two cholesterol tracers and the natural cholesterols in the sample. The GC/MS data is corrected to provide the actual relative amounts of the cholesterol tracers in the blood sample and a cholesterol absorption percentage is calculated based upon the amount of cholesterol tracers introduced into the body in relation to the amount in the blood samples.
Five healthy subjects (three men and two women, age 22-34) underwent two cholesterol absorption studies separated by 4-6 weeks. Out patient subjects received a National Cholesterol Education Program step I diet prepared in the metabolic kitchen of the Washington University Clinical Research Center for five days. Starting two days before testing and ending three days after testing. The metabolically stable cholesterols were given on day 0 with a meal containing 240 ml of whole milk as a source of fat to assure contraction of the gallbladder.
as §1, with “saline. […]” for “saline.”

[4] = humans, background; cited from earlier work

| SMILES | change in the plasma ratio of the two cholesterols [1] | labeled cholesterol passed through the filter ([2]; ethanolic cholesterol in 4 volumes of 10% Intralipid, 0.8 micron particulate filter) | solubilization of cholesterol ([2]; with use of Intralipid) | tracer cholesterol found in the syringe and intravenous lines ([2]; with use of Intralipid) | Fa at 72 h ([3]; mean of five healthy subjects, test 1, read-out: mean cholesterol absorption, Test 1) | Fa at 72 h ([3]; mean of five healthy subjects, test 2, 4-6 weeks later, read-out: mean cholesterol absorption, Test 2) | Fa at 72 h ([3]; test 1, five healthy subjects, read-out: cholesterol absorption, range between subjects) | cholesterol absorption, Test 1 ([3]; individual subjects 1-5, oral ^2 H-cholesterol about 30 mg, i.v. ^13 C-cholesterol about 15 mg, plasma at three days, 4320 min) | cholesterol absorption, Test 2 ([3]; individual subjects 1-5, second study 4-6 weeks after Test 1, plasma at three days, 4320 min) | mean cholesterol absorption, Test 1 ([3]; mean of five healthy subjects, test 1, 4320 min) | percent of cholesterol absorbed [4] |
| --- | --- | --- | --- | --- | --- | --- | --- | --- | --- | --- | --- |
| [2H]C([2H])([2H])C(CCC[C@@H](C)[C@H]1CC[C@H]2[C@@H]3CC=C4C[C@@H](O)CC[C@]4(C)[C@H]3CC[C@]12C)C([2H])([2H])[2H] [^2 H-cholesterol, [26,26,26,27,27,27]-^2 H-cholesterol] | no change |  |  |  |  |  |  |  |  |  |  |
| C[C@H](C[13CH2][13CH2][13CH]([13CH3])[13CH3])[C@H]1CC[C@H]2[C@@H]3CC=C4C[C@@H](O)CC[C@]4(C)[C@H]3CC[C@]12C [^13 C-cholesterol, [23,24,25,26,27]-^13 C-cholesterol] | no change | More than 94% | quantitatively solubilized | less than 0.4% |  |  |  |  |  |  |  |
| CC(C)CCC[C@@H](C)[C@H]1CC[C@H]2[C@@H]3CC=C4C[C@@H](O)CC[C@]4(C)[C@H]3CC[C@]12C [cholesterol] |  |  |  |  | 59.3 ± 8.4% | 57.6 ± 8.2% | 47 to 71% | 59.4% and 62.2% and 70.5% and 47.4% and 57.1% | 62.4% and 58.0% and 67.2% and 45.4% and 55.0% | 59% | 15% to 75 |
